Measurements from ChEMBL document CHEMBL4371021, “BH3 mimetics derived from Bim-BH3 domain core region show PTP1B inhibitory activity” (Bioorg Med Chem Lett, 2019).
The source made the active and inactive calls. The rule behind the calls is not given here.

Experiments:
[1] = molecular target: T1, Tyrosine-protein phosphatase non-receptor type 1 (Homo sapiens) (UniProt P18031); test: Inhibition of recombinant human N-terminal poly histidine-tagged PTP1B (Glu2 to Asn321 residues) expressed in Escherichia coli at 40 umol/L using pNPP as substrate measured for 4 mins relative to control
T1 sequence (whole entry): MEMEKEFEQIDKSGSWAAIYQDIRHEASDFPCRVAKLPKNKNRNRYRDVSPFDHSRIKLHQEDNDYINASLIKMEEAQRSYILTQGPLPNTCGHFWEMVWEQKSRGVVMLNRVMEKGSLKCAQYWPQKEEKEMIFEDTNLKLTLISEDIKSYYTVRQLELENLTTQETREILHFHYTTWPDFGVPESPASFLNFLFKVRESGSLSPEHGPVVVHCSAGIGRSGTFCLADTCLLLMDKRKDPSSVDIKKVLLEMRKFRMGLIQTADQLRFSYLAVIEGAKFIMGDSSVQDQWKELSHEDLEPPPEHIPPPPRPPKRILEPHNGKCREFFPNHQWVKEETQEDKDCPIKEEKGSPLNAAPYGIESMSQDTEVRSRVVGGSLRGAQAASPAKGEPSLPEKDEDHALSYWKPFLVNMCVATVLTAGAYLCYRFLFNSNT

HepG2 = test: Induction of insulin-stimulated 2-NBDG uptake in palmitic acid-induced insulin resistant human HepG2 cells at 1 umol/L preincubated for 24 hrs followed by insulin stimulation and measured after 30 mins by fluorescence assay; type: functional, cell-based
[2] = molecular target: T2, Tyrosine-protein phosphatase non-receptor type 1 (Homo sapiens, UniProt P18031); test: Binding affinity to recombinant human N-terminal poly histidine-tagged PTP1B (Glu2 to Asn321 residues) expressed in Escherichia coli by surface plasmon resonance analysis
T2 sequence (P18031 whole entry): T1 sequence (whole entry)

[3] = molecular target: T1, Tyrosine-protein phosphatase non-receptor type 1 (Homo sapiens); test: Binding affinity to recombinant human N-terminal poly histidine-tagged PTP1B (Glu2 to Asn321 residues) expressed in Escherichia coli assessed as association rate constant by surface plasmon resonance analysis
[4] = molecular target: T1, Tyrosine-protein phosphatase non-receptor type 1 (Homo sapiens); test: Binding affinity to recombinant human N-terminal poly histidine-tagged PTP1B (Glu2 to Asn321 residues) expressed in Escherichia coli assessed as dissociation rate constant by surface plasmon resonance analysis

inhibition [1]	Kd [2]	Ka [3]	Kdiss [4]	Compound	Activity (HepG2)
9.43%				Ac-WIAQELRRIGDEFN-NH2	
				CN(CCOc1ccc(CC2SC(=O)NC2=O)cc1)c1ccccn1 (configuration not stated)	Active
5%	128 nM	9880 M⁻¹ s⁻¹	1.26 ×10⁻³ /s	Ac-IWIAQELRRIGDEF-NH2	
2.1%				Ac-IAQELRRIGDEF-NH2	
